From PubChem BioAssay (NCI)
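Tested at 5 concentrations; 48 h exposure; 96-well plates; endpoints linearly interpolated, else capped at highest concentration. TGI denotes the concentration required for complete inhibition of growth.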

How the values were obtained:
Assay in all cases: DTP human tumour cell line panel, 48 h
LOX IMVI melanoma = system: LOX IMVI melanoma
HOP-92 NSCLC = system: HOP-92 NSCLC
MDA-MB-231 breast = system: MDA-MB-231 breast
SK-MEL-2 melanoma = system: SK-MEL-2 melanoma
OVCAR-4 ovarian = system: OVCAR-4 ovarian
PC-3 prostate = system: PC-3 prostate
RPMI-8226 leukemia = system: RPMI-8226 leukemia
MDA-N = system: MDA-N
KM12 colon = system: KM12 colon
OVCAR-8 ovarian = system: OVCAR-8 ovarian
CCRF-CEM leukemia = system: CCRF-CEM leukemia

Compound | TGI (LOX IMVI melanoma) | TGI (HOP-92 NSCLC) | TGI (MDA-MB-231 breast) | TGI (SK-MEL-2 melanoma) | TGI (OVCAR-4 ovarian) | TGI (PC-3 prostate) | TGI (RPMI-8226 leukemia) | TGI (MDA-N) | TGI (KM12 colon) | TGI (OVCAR-8 ovarian) | TGI (CCRF-CEM leukemia)
CC1=CC(C)(C)Nc2ccc(CSc3ccccc3)cc21 | 82.3 µM | > 100 µM | 94.1 µM | 52.2 µM | 46.1 µM | 89.8 µM | 31.2 µM | 69.9 µM | 63.5 µM | > 100 µM | 
O=C1C(Cl)=C(N2CCN(c3ccccn3)CC2)C(=O)c2ncccc21 | 3.59 µM | 3.29 µM | 3.39 µM | 4.02 µM | 3.33 µM | 7.52 µM | 5.7 µM | 3.51 µM | 12.2 µM | 2.77 µM | 3.11 µM
CC(C)(C)NC(=O)C12C3C4C1C1C2C3C41C(=O)NC(C)(C)C (stereo not drawn) | > 100 µM | 71.6 µM | > 100 µM | > 100 µM | > 100 µM | > 100 µM |  | > 100 µM | > 100 µM | > 100 µM | > 100 µM
O=C(O)CCC(NC(=O)c1ccc(CNc2nc3ccccc3nc2C(=O)O)cc1)C(=O)O (stereo not drawn) | > 100 µM |  | > 100 µM | > 100 µM | > 100 µM | > 100 µM | > 100 µM | > 100 µM | > 100 µM | > 100 µM | > 100 µM
COc1ccc(Nc2nc3ccccc3nc2C(=O)O)cc1OC | > 100 µM | > 100 µM | > 100 µM |  |  | > 100 µM | > 100 µM | > 100 µM | > 100 µM | > 100 µM | > 100 µM
O=C(N/N=C(/COc1cccc(Cl)c1)N=Cc1cccnc1)c1ccncc1 | > 100 µM | 89.7 µM | > 100 µM | > 100 µM | > 100 µM | > 100 µM | > 100 µM | > 100 µM | > 100 µM | > 100 µM | > 100 µM
Cn1c(-c2ccc(N=NNc3ccc(-c4n[nH]c(=S)n4C)cc3)cc2)n[nH]c1=S | > 100 µM | 8.84 µM | 43.4 µM | > 100 µM | > 100 µM | > 100 µM |  | > 100 µM |  | 23.4 µM | > 100 µM
COC(=O)c1c(C(=O)OC)c2c3ccccc3n(C)c2c2c1c1ccccc1n2C | > 100 µM | > 100 µM | > 100 µM | > 100 µM | > 100 µM | > 100 µM | > 100 µM | > 100 µM | > 100 µM | > 100 µM | > 100 µM
COc1ccc(/C=C2/CCS(=O)(=O)c3ccc(C)cc3C2=O)cc1OC | 20.4 µM | 9.55 µM | 39.1 µM | 60.9 µM | 66.9 µM | 58.9 µM | 37.6 µM | 49.5 µM | 23 µM | 48.1 µM | 69.8 µM
COc1ncnc2c1cnn2Cc1cn(CCCCO)nn1 | > 100 µM | > 100 µM | > 100 µM | > 100 µM | > 100 µM | > 100 µM | > 100 µM | > 100 µM | > 100 µM | > 100 µM | > 100 µM
COc1ccc(-c2nc(-c3cnccn3)n(COCCO)n2)cc1 | > 100 µM | > 100 µM | > 100 µM |  | > 100 µM | > 100 µM | > 100 µM | > 100 µM | > 100 µM | > 100 µM | > 100 µM
